The source made the active and inactive calls. The rule behind the calls is not given here.
Tests used:
K562 [1] = test: Induction of cell cycle arrest at G2 phase in human K562 cells at 8 nM incubated for 48 hrs by PI staining based flow cytometry (Rvb =15.36 +/- 0.46 %); assay type: functional
Tubulin = test: Inhibition of tubulin (unknown origin) polymerization measured for 60 mins by absorbance based assay; assay type: protein-complex assay, Homo sapiens
K562 [2] = test: Inhibition of mitochondrial membrane potential in human K562 cells assessed as red fluorescence intensity at 2 nM incubated for 48 hrs by JC-1 staining based flow cytometry (reference value: 93.36 +/- 0.21 %); assay type: functional
K562 [3] = test: Effect on cell cycle in human K562 cells assessed as decrease in Cdc2 level incubated for 24 hrs by Western blot analysis; assay type: functional, cell-based; details: dose 2-8 nM
Tubulin (Homo sapiens) = Tubulin (Homo sapiens) (UniProt P68371+Q9H4B7+P0DPH7+P68366+Q13509+Q71U36+P04350+Q3ZCM7+P07437+P68363+Q9BQE3+Q6PEY2+Q13885+Q9BVA1+Q9BUF5); test: Inhibition of tubulin polymerization in human K562 cells assessed as disruption of microtubule network at 2 to 8 nM by immunofluorescence based analysis; assay type: cell-based; details: dose 2-8 nM
K562 [4] = test: Induction of apoptosis in human K562 cells assessed as early apoptotic cells at 2 nM incubated for 48 hrs by Annexin V/PI staining based flow cytometry (reference value: 1.55 +/- 0.21 %); assay type: functional
H22 [5] = test: Antitumor activity against mouse H22 cells allografted in ICR mouse assessed as tumor growth inhibition at 20 mg/kg, iv qd for 17 days consecutively relative to control; assay type: functional; details: time 17 day, read-out: TGI
K562 [6] = test: Induction of cell cycle arrest at S phase in human K562 cells at 4 nM incubated for 48 hrs by PI staining based flow cytometry (reference value: 22.56 +/- 0.47 %); assay type: functional
[7] = Antiproliferative activity against human HFL1 cells incubated for 72 hrs by MTT assay; assay type: toxicity, cell-based
K562 [8] = test: Induction of apoptosis in human K562 cells assessed as decrease in Bcl-2 level incubated for 24 hrs by Western blot analysis; assay type: functional, cell-based; details: dose 2-8 nM
[9] = Toxicity in ICR mouse allografted with mouse H22 cells assessed as toxic sign in kidney at 10 to 20 mg/kg, iv qd for 17 days consecutively by H and E staining based analysis; assay type: organism-based; details: in vivo, dose 10-20 mg/kg, time 17 day
H22 [10] = test: Antitumor activity against mouse H22 cells allografted in ICR mouse assessed as decrease in tumor microvessel density at 20 mg/kg, iv qd for 17 days consecutively by IHC analysis; assay type: functional, organism-based; details: time 17.0 day
[11] = Toxicity in ICR mouse allografted with mouse H22 cells assessed as toxic sign in liver at 10 to 20 mg/kg, iv qd for 17 days consecutively by H and E staining based analysis; assay type: organism-based; details: in vivo, dose 10-20 mg/kg, time 17 day
K562 [12] = test: Induction of cell cycle arrest at S phase in human K562 cells at 8 nM incubated for 48 hrs by PI staining based flow cytometry (reference value: 22.56 +/- 0.47 %); assay type: functional
H22 [13] = test: Antitumor activity against mouse H22 cells allografted in ICR mouse assessed as decrease in tumor volume at 10 to 20 mg/kg, iv qd for 17 days consecutively; assay type: functional, organism-based; details: dose 10-20 mg/kg, time 17.0 day
A549 = test: cells; details: Homo sapiens, A549, 72 h
Description: Antiproliferative activity against human A549 cells incubated for 72 hrs by MTT assay

H22 [14] = test: Antiproliferative activity against mouse H22 cells incubated for 72 hrs by MTT assay; assay type: functional, cell-based; details: H22, 72 h
HUVEC = test: Antivascular activity against HUVEC cells assessed as decrease in cell migration at 8 nM incubated for 24 hrs by wound healing assay; assay type: functional, cell-based; details: Homo sapiens
K562 [15] = test: Induction of cell cycle arrest at G1 phase in human K562 cells at 8 nM incubated for 48 hrs by PI staining based flow cytometry (reference value: 62.08 +/- 0.40 %); assay type: functional
K562 [16] = test: Inhibition of mitochondrial membrane potential in human K562 cells assessed as red fluorescence intensity at 4 nM incubated for 48 hrs by JC-1 staining based flow cytometry (reference value: 93.36 +/- 0.21 %); assay type: functional
H22 [17] = test: Antitumor activity against mouse H22 cells allografted in ICR mouse assessed as tumor growth inhibition at 10 mg/kg, iv qd for 17 days consecutively relative to control; assay type: functional; details: time 17 day, read-out: TGI
K562 [18] = test: Induction of cell cycle arrest at G1 phase in human K562 cells at 4 nM incubated for 48 hrs by PI staining based flow cytometry (reference value: 62.08 +/- 0.40 %); assay type: functional
K562 [19] = test: Induction of cell cycle arrest at G2 phase in human K562 cells at 4 nM incubated for 48 hrs by PI staining based flow cytometry (Rvb =15.36 +/- 0.46 %); assay type: functional
Histone deacetylase 7 = target: T1, Histone deacetylase 7 (Homo sapiens, UniProt Q8WUI4); test: Inhibition of HDAC7 derived from human HeLa cell extract using Ac-Leu-Gly-Lys (Ac)-AMC as substrate by fluorescence based assay; assay type: cell-free
T1 sequence (Q8WUI4 whole entry): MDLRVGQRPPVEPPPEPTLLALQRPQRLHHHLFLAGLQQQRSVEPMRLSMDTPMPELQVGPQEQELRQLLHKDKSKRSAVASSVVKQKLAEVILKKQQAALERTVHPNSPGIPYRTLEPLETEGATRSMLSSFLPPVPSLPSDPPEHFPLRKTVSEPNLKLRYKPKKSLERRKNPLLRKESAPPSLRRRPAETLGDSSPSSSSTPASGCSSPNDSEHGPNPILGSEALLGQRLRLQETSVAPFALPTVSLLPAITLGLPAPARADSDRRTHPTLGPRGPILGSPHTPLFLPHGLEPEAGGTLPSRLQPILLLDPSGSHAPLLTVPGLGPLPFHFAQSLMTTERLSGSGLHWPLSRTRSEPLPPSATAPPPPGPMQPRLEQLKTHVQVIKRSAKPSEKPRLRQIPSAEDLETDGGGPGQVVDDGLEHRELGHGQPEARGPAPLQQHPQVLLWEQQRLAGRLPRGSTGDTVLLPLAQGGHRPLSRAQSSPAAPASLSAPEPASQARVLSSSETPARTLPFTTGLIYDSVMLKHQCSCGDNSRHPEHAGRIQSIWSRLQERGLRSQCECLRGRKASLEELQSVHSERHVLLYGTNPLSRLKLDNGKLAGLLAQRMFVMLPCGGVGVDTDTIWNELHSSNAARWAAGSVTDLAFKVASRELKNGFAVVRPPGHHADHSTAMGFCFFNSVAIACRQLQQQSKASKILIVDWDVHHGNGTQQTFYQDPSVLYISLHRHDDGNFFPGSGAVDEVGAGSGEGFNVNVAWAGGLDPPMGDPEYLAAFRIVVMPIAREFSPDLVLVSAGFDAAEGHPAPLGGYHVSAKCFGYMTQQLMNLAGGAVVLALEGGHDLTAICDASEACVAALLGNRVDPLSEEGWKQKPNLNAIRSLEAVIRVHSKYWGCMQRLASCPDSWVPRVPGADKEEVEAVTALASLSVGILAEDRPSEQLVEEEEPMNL

K562 [20] = test: Induction of apoptosis in human K562 cells assessed as late apoptotic cells at 2 nM incubated for 48 hrs by Annexin V/PI staining based flow cytometry (reference value: 3.37 +/- 0.21 %); assay type: functional

C=C(c1ccc(OC)c(OC(F)C(=O)NO)c1)c1cc(C)nc2ccccc12 (stereo not given)
Activity (K562 [1]): 27.87% | IC50 (Tubulin): 3840 nM | Flu intensity (K562 [2]): 82.36% | Activity (K562 [3]): Dose-Dependent Effect | inhibition (Tubulin (Homo sapiens)): Active | Activity (K562 [4]): 14.52% | inhibition in vivo at 20 mg/kg (H22 [5]): 73.1% | Activity (K562 [6]): 26.6% | IC50 at 72 h [7]: 230 nM | Activity (K562 [8]): Dose-Dependent Effect | Activity [9]: Non-Toxic | Activity (H22 [10]): Active | Activity [11]: Non-Toxic | Activity (K562 [12]): 30.41% | Activity (H22 [13]): Active | IC50 (A549): 17 nM | IC50 (H22 [14]): 8 nM | Activity (HUVEC): Active | Activity (K562 [15]): 41.72% | Flu intensity (K562 [16]): 68.24% | inhibition in vivo at 10 mg/kg (H22 [17]): 48% | Activity (K562 [18]): 49.35% | Activity (K562 [19]): 23.38% | IC50 (Histone deacetylase 7): > 10000 nM | Activity (K562 [20]): 3.94%

— ChEMBL document CHEMBL5620374, “Synthesis and bioevaluation of novel stilbene-based derivatives as tubulin/HDAC dual-target inhibitors with potent antitumor activities in vitro and in vivo” (Eur J Med Chem, 2023)
